Reference: patent US7803930B2, “Antisense modulation of apolipoprotein B-expression” (Isis Pharmaceuticals, Inc., priority 2002, dated 2010)
In the oligonucleotide strings, read from the 5' end, every base follows the letter of its sugar. An asterisk marks phosphorothioate; unmarked linkages are phosphodiester. Other units and linkages are bracketed, terminal groups are in braces. A string of capitals states the bases alone. e = 2'-O-(2-methoxyethyl) (MOE); [5mC] = 5-methylcytosine; d = 2'-deoxy (DNA)

Columns and labels:
[1] = Lean vs high fat fed C57BL/6 mice (Example 20): cholesterol, lipoprotein, triglyceride, liver enzyme and serum glucose levels; assay type: in vivo, mouse; conditions: 50 mg/kg i.p. every three days, six weeks
Protocol: Male C57BL/6 mice were divided into two matched groups; (1) wild-type control animals (lean animals) and (2) animals receiving a high fat diet (60% kcal fat). Control animals received saline treatment and were maintained on a normal rodent diet. After overnight fasting, mice from each group were dosed intraperitoneally every three days with saline or 50 mg/kg ISIS 147764 (SEQ ID No: 109) for six weeks. At study termination and forty eight hours after the final injections, animals were sacrificed and evaluated for target mRNA levels in liver, cholesterol and triglyceride levels, liver enzyme levels and serum glucose levels.

apolipoprotein B mRNA [2] = experiment: LDLr(-/-) mice dose response (Example 44): apolipoprotein B mRNA; assay type: in vivo, mouse; conditions: six weeks
Protocol: (§1) LDLr(−/−) mice, purchased from Taconic (Germantown, N.Y.) were used to evaluate antisense oligonucleotides for their potential to lower apolipoprotein B mRNA or protein levels, as well as phenotypic endpoints associated with apolipoprotein B. LDLr(−/−) mice were separated into groups of males and females. LDLr(−/−) mice were dosed intraperitoneally twice a week for six weeks with either 10, 25, or 50 mg/kg of ISIS 147764 (SEQ ID NO: 109) or ISIS 270906 (SEQ ID NO: 856) which is a 4 base mismatch of ISIS 147764, or with saline, or 20 mg/kg of Atorvastatin. At study termination animals were sacrificed and evaluated for several phenotypic markers.

[3] = LDLr(-/-) mice dose response (Example 44): liver enzyme, cholesterol and triglyceride levels; assay type: in vivo, mouse; conditions: six weeks
Protocol: as §1

apolipoprotein B mRNA [4] = experiment: High fat fed mice, time-dependent effects and after cessation of dosing (Example 51): apolipoprotein B mRNA in liver; assay type: in vivo, mouse; conditions: for % Inhibition apolipoprotein B mRNA: liver
Protocol: In a further embodiment of the invention, the inhibition of apolipoprotein B mRNA in mice was compared to liver oligonucleotide concentration, total cholesterol, LDL-cholesterol and HDL-cholesterol. Male C57Bl/6 mice receiving a high fat diet (60% fat) were evaluated over the course of 6 weeks for the effects of treatment with twice weekly intraperitoneal injections of 50 mg/kg ISIS 147764 (SEQ ID NO: 109) or 50 mg/kg of the control oligonucleotide ISIS 141923 (SEQ ID NO: 858). Control animals received saline treatment. Animals were sacrificed after 2 days, 1, 2, 4 and 6 weeks of treatment. Each treatment group at each time point consisted of 8 mice.
Target expression in liver was measured by real-time PCR as described by other examples herein and is expressed as percent inhibition relative to saline treated mice. Total, LDL- and HDL-cholesterol levels were measured by routine clinical analysis using an Olympus Clinical Analyzer (Olympus America Inc., Melville, N.Y.) and are presented in mg/dL. Results from saline-treated animals are shown for comparison. Intact oligonucleotide in liver tissue was measured by capillary gel electrophoresis and is presented as micrograms of oligonucleotide per gram of tissue.
The oligonucleotide treatments described in this example were duplicated to investigate the extent to which effects of ISIS 147764 persist following cessation of treatment. Mice were treated as described, and sacrificed 1, 2, 4, 6 and 8 weeks following the cessation of oligonucleotide treatment.

[5] = Transgenic mice dosing study (Example 52): serum total, LDL- and HDL-cholesterol; assay type: in vivo, mouse; conditions: 10 or 25 mg/kg, first 4 weeks of treatment
Protocol: A long-term study of inhibition of human apolipoprotein B by ISIS 301012 in C57BL/6NTac-TgN(APOB100) mice (Taconic, Germantown, N.Y.) was conducted for a 3 month period. Mice were dosed intraperitoneally twice a week with 10 or 25 mg/kg ISIS 301012 (SEQ ID No: 247) for 12 weeks. Saline-injected animals served as controls. Each treatment group comprised 4 animals.
Results are presented as mg/dL in serum and represent the average of 4 animals. Results from the saline control animals are also shown.

apolipoprotein B protein = experiment: Apolipoprotein B protein secreted from primary human hepatocytes, ELISA; assay type: cell-based; conditions: 300 nM
[6] = tested on: human apolipoprotein B protein; experiment: Transgenic mice (Example 47): serum human apolipoprotein B protein by ELISA; assay type: in vivo, human transgene in mouse; conditions: 25 mg/kg, relative to saline-treated animals
Protocol: Serum samples were also collected at 2, 4, 6 and 8 weeks and were evaluated for human apolipoprotein B expression by using a human apolipoprotein B specific ELISA kit (ALerCHEK Inc., Portland, Me.). […] Treatment with ISIS 301012 reduced serum human apolipoprotein B protein by 70, 87, 81 and 41% at 2, 4, 6 and 8 weeks, respectively, relative to saline-treated control animals. Serum from transgenic mice was also subjected to immunoblot analysis using both human and mouse specific apolipoprotein B antibodies (US Biologicals, Swampscott, Mass. and Santa Cruz Biotechnology, Inc., Santa Cruz, Calif., respectively).

[7] = Lean-control group, C57BL/6 mice
[8] = male and female LDLr(-/-) mice, 10, 25 or 50 mg/kg i.p. twice a week
[9] = female LDLr(-/-) mice, 10 mg/kg i.p. twice a week
[10] = female LDLr(-/-) mice, 25 mg/kg i.p. twice a week
[11] = female LDLr(-/-) mice, 50 mg/kg i.p. twice a week
[12] = male LDLr(-/-) mice, 10 mg/kg i.p. twice a week
[13] = male LDLr(-/-) mice, 25 mg/kg i.p. twice a week
[14] = male LDLr(-/-) mice, 50 mg/kg i.p. twice a week

GTCCCTGAAGATGTCAATGC (2'-MOE gapmer, further chemistry not given here) [ISIS 147764]
Percent Change CHOL ([1]; High Fat Group, C57BL/6 mice): −67%
Percent Change GLUC ([1]; High Fat Group, C57BL/6 mice): −28%
Percent Change Lipoproteins HDL ([1]; High Fat Group, C57BL/6 mice): −65%
Percent Change Lipoproteins LDL ([1]; High Fat Group, C57BL/6 mice): −87%
Percent Change CHOL [1, 7]: −63%
Percent Change Lipoproteins HDL [1, 7]: −44%
Percent Change Lipoproteins LDL [1, 7]: −64%
Percent Change TRIG [1, 7]: −34%
changes in liver enzyme levels ([1]; lean and high fat C57BL/6 mice): No significant changes
mRNA levels (apolipoprotein B mRNA [2]; [8]): able to lower cholesterol, triglycerides, and mRNA levels in a dose-dependent manner
cholesterol, triglycerides [3, 8]: able to lower cholesterol, triglycerides, and mRNA levels in a dose-dependent manner
time of treatment within which inhibition of apolipoprotein B mRNA occurred (apolipoprotein B mRNA [4]; high fat fed C57Bl/6 mice, 50 mg/kg i.p. twice weekly): ≤ 2 days
persistence of effects (mRNA inhibition, cholesterol lowering) after termination of treatment (apolipoprotein B mRNA [4]; high fat fed C57Bl/6 mice, after 6 weeks of 50 mg/kg twice weekly): up to 8 weeks
LDL-cholesterol [5]: lowered

113529 (antisense e[5mC]*eT*e[5mC]*eT*eT*dA*d[5mC]*dT*dG*dT*dG*d[5mC]*dT*dG*dT*eG*eG*eA*e[5mC]*eA) [compound 113529]
% Change in apolipoprotein B protein secretion (apolipoprotein B protein; 24 hours): −2%
% Change in apolipoprotein B protein secretion (apolipoprotein B protein; 48 hours): −5%

ISIS 281625: SEQ ID NO: 224, 2′-MOE gapmer targeted to human apolipoprotein B (antisense eA*eG*eG*eT*eT*dA*d[5mC]*d[5mC]*dA*dG*d[5mC]*d[5mC]*dA*d[5mC]*dA*eT*eG*e[5mC]*eA*eG)
reduction of serum human apolipoprotein B protein (ELISA) ([6]; 2 weeks): 31%
reduction of serum human apolipoprotein B protein (ELISA) ([6]; 4 weeks): 26%
reduction of serum human apolipoprotein B protein (ELISA) ([6]; 6 weeks): 11%
reduction of serum human apolipoprotein B protein (ELISA) ([6]; 8 weeks): 26%

147764 (eG*eT*e[5mC]*e[5mC]*e[5mC]*dT*dG*dA*dA*dG*dA*dT*dG*dT*d[5mC]*eA*eA*eT*eG*e[5mC]) [compound 147764]
apolipoprotein B mRNA % control (apolipoprotein B mRNA [2]; [9]): 64.2 % control
apolipoprotein B mRNA % control (apolipoprotein B mRNA [2]; [10]): 41.3 % control
apolipoprotein B mRNA % control (apolipoprotein B mRNA [2]; [11]): 18.5 % control
apolipoprotein B mRNA % control (apolipoprotein B mRNA [2]; [12]): 61.7 % control
apolipoprotein B mRNA % control (apolipoprotein B mRNA [2]; [13]): 30.7 % control
apolipoprotein B mRNA % control (apolipoprotein B mRNA [2]; [14]): 16.6 % control
Lipoproteins CHOL [3, 9]: 269.6 mg/dL
Lipoproteins HDL [3, 9]: 121.0 mg/dL
Lipoproteins LDL [3, 9]: 127.8 mg/dL
Lipoproteins TRIG [3, 9]: 140.8 mg/dL
Liver Enzymes ALT [3, 9]: 27.2 IU/L
Liver Enzymes AST [3, 9]: 82.0 IU/L
Lipoproteins CHOL [3, 10]: 175.8 mg/dL
Lipoproteins HDL [3, 10]: 99.5 mg/dL
Lipoproteins LDL [3, 10]: 68.9 mg/dL
Lipoproteins TRIG [3, 10]: 100.4 mg/dL
Liver Enzymes ALT [3, 10]: 32.2 IU/L
Liver Enzymes AST [3, 10]: 61.4 IU/L
Lipoproteins CHOL [3, 11]: 138.2 mg/dL
Lipoproteins HDL [3, 11]: 92.2 mg/dL
Lipoproteins LDL [3, 11]: 45.9 mg/dL
Lipoproteins TRIG [3, 11]: 98.0 mg/dL
Liver Enzymes ALT [3, 11]: 120.4 IU/L
Liver Enzymes AST [3, 11]: 134.6 IU/L
Lipoproteins CHOL [3, 12]: 314.2 mg/dL
Lipoproteins HDL [3, 12]: 150.0 mg/dL
Lipoproteins LDL [3, 12]: 134.7 mg/dL
Lipoproteins TRIG [3, 12]: 198.6 mg/dL
Liver Enzymes ALT [3, 12]: 29.8 IU/L
Liver Enzymes AST [3, 12]: 57.6 IU/L
Lipoproteins CHOL [3, 13]: 185.0 mg/dL
Lipoproteins HDL [3, 13]: 110.6 mg/dL
Lipoproteins LDL [3, 13]: 66.2 mg/dL
Lipoproteins TRIG [3, 13]: 104.2 mg/dL
Liver Enzymes ALT [3, 13]: 78.8 IU/L
Liver Enzymes AST [3, 13]: 112.6 IU/L
Lipoproteins CHOL [3, 14]: 165.6 mg/dL
Lipoproteins HDL [3, 14]: 107.8 mg/dL
Lipoproteins LDL [3, 14]: 51.2 mg/dL
Lipoproteins TRIG [3, 14]: 113.4 mg/dL
Liver Enzymes ALT [3, 14]: 156.8 IU/L
Liver Enzymes AST [3, 14]: 163.6 IU/L
% Inhibition apolipoprotein B mRNA (apolipoprotein B mRNA [4]; high fat fed male C57Bl/6 mice, 50 mg/kg i.p. twice weekly, treatment period 1 week): 57%
% Inhibition apolipoprotein B mRNA (apolipoprotein B mRNA [4]; high fat fed male C57Bl/6 mice, 50 mg/kg i.p. twice weekly, treatment period 2 weeks): 73%
% Inhibition apolipoprotein B mRNA (apolipoprotein B mRNA [4]; high fat fed male C57Bl/6 mice, 50 mg/kg i.p. twice weekly, treatment period 4 weeks): 82%
% Inhibition apolipoprotein B mRNA (apolipoprotein B mRNA [4]; high fat fed male C57Bl/6 mice, 50 mg/kg i.p. twice weekly, treatment period 6 weeks): 88%
% Inhibition apolipoprotein B mRNA (apolipoprotein B mRNA [4]; high fat fed male C57Bl/6 mice, 50 mg/kg i.p. twice weekly, treatment period 2 days): 50%
% Inhibition apolipoprotein B mRNA (apolipoprotein B mRNA [4]; high fat fed mice, 50 mg/kg i.p. twice weekly, 1 week after cessation of dosing): 82%
% Inhibition apolipoprotein B mRNA (apolipoprotein B mRNA [4]; high fat fed mice, 50 mg/kg i.p. twice weekly, 2 weeks after cessation of dosing): 78%
% Inhibition apolipoprotein B mRNA (apolipoprotein B mRNA [4]; high fat fed mice, 50 mg/kg i.p. twice weekly, 4 weeks after cessation of dosing): 49%
% Inhibition apolipoprotein B mRNA (apolipoprotein B mRNA [4]; high fat fed mice, 50 mg/kg i.p. twice weekly, 6 weeks after cessation of dosing): 37%
% Inhibition apolipoprotein B mRNA (apolipoprotein B mRNA [4]; high fat fed mice, 50 mg/kg i.p. twice weekly, 8 weeks after cessation of dosing): 19%

301012 (eG*e[5mC]*e[5mC]*eT*e[5mC]*dA*dG*dT*d[5mC]*dT*dG*d[5mC]*dT*dT*d[5mC]*eG*e[5mC]*eA*e[5mC]*e[5mC]) [compound 301012]
% Change in apolipoprotein B protein secretion (apolipoprotein B protein; 24 hours): −41%
% Change in apolipoprotein B protein secretion (apolipoprotein B protein; 48 hours): −48%
